Experimental data taken from ChEMBL document CHEMBL3988442, “University of Dundee, Small-Polar-MMV Screening Library” (2021).

Key:
[1] = microbe, parasite or virus in culture; conditions: Mycobacterium tuberculosis, 96 h, read-out: pIC50 (converted)
[2] = microbe, parasite or virus in culture; conditions: Mycobacterium tuberculosis, 72 h, read-out: pIC50 (converted)

With NCC(NS(=O)(=O)CCc1cccs1)C1CC1 (stereo unspecified) the IC50 [1] was 47.8 µM and the IC50 [2] was 167 µM.

NCCCOc1ncc(C(F)(F)F)cc1Cl showed an IC50 [1] of 238 µM and an IC50 [2] of 101 µM.

Cc1cc(C(=O)NCc2ccc(F)cc2)[nH]n1 showed an IC50 [1] of 132 µM and an IC50 [2] of 28 µM.

In the case of CC(C)c1cc(C(=O)N[C@@H]2CCOC[C@H]2O)cs1, the IC50 [1] is reported as > 501 µM and the IC50 [2] is reported as > 501 µM.

In the case of CN(C)C(=O)c1csc(N2CCCCC2)n1, the IC50 [1] is reported as 58.7 µM and the IC50 [2] is reported as 46.6 µM.

With CN(Cc1ccccc1Br)C(=O)c1nccnc1N the IC50 [1] was > 501 µM and the IC50 [2] was > 501 µM.

In the case of Cn1nc(C2CCCN(Cc3cc(F)ccc3F)C2)c2nccnc21 (stereo unspecified), the IC50 [1] is reported as > 50.1 µM and the IC50 [2] is reported as > 50.1 µM.

With CCc1nc(CNC)cs1 the IC50 [1] was 236 µM and the IC50 [2] was 305 µM.

For CCCc1nc2c(c(C)c(C)n2Cc2ccncc2)c(N)c1CC, the IC50 [1] was > 50.1 µM and the IC50 [2] was > 50.1 µM.

With CN1CCCN(C(=O)c2cc3c(s2)CCCC3)CC1 the IC50 [1] was > 501 µM and the IC50 [2] was 211 µM.

With Cc1nn(CCCN)c(C)c1Br the IC50 [1] was > 501 µM and the IC50 [2] was 266 µM.

Work on CCOc1cccc(CNc2nc(N(C)C)n[nH]2)c1 yielded an IC50 [1] of 34.2 µM and an IC50 [2] of 57.4 µM.

Work on Cc1nc(N2CCCC2)nc2c1CCN(Cc1ccoc1)CC2 yielded an IC50 [1] of 14.7 µM and an IC50 [2] of 22.8 µM.

With CC(=O)NCc1noc2c1CN(Cc1ccsc1)CC2 the IC50 [1] was > 50.1 µM and the IC50 [2] was > 50.1 µM.

With COCCNc1ccc(OC)c(OC)c1 the IC50 [1] was > 501 µM and the IC50 [2] was 257 µM.

Compound Cc1nsc(C(=O)NCCc2ccccc2)n1 has an IC50 [1] of 20.9 µM and an IC50 [2] of 15.5 µM.

For Cc1ccc(NCc2ncc[nH]2)c(F)c1, the IC50 [1] was > 501 µM and the IC50 [2] was 216 µM.

In the case of O=C(Nc1cccc(-n2cccn2)c1)N1CCSCC1, the IC50 [1] is reported as > 501 µM and the IC50 [2] is reported as > 501 µM.

In the case of Clc1cnc(NCCNCc2cc[nH]n2)c(Cl)c1, the IC50 [1] is reported as > 501 µM and the IC50 [2] is reported as 227 µM.

With CC(C(=O)NC1CC1)N1CCN(C)c2ccccc2C1 (stereo unspecified) the IC50 [1] was 276 µM and the IC50 [2] was 248 µM.

For NC(=O)C1CCN(C(=O)COc2ccc(F)cc2Br)C1 (stereo unspecified), the IC50 [1] was > 501 µM and the IC50 [2] was > 501 µM.

O=C(CS(=O)(=O)Cc1cccc(Cl)c1)NCC1CC1 showed an IC50 [1] of 263 µM and an IC50 [2] of 83.2 µM.

Work on CC(=O)c1ccc(Cl)c(S(=O)(=O)NC(CN)C2CC2)c1 (stereo unspecified) yielded an IC50 [1] of 111 µM and an IC50 [2] of 116 µM.

With CC(C)CCOCCSc1nnnn1C the IC50 [1] was 82.3 µM and the IC50 [2] was 155 µM.

With NCCCOC1CCN(C(=O)c2ccc(Br)o2)CC1 the IC50 [1] was > 501 µM and the IC50 [2] was 76.7 µM.

OCCNCCNCc1cccc(Cl)c1Cl gave an IC50 [1] of 33.1 µM and an IC50 [2] of 199 µM.

For CC1CCCCN1S(=O)(=O)c1ccc(CCN)cc1 (stereo unspecified), the IC50 [1] was > 501 µM and the IC50 [2] was > 501 µM.

In the case of COc1ccc(CNc2ccncc2F)cc1C#N, the IC50 [1] is reported as > 501 µM and the IC50 [2] is reported as > 501 µM.

Work on O=C(CNC1CC1)NC[C@H]1CCc2ccccc2O1 yielded an IC50 [1] of 156 µM and an IC50 [2] of 130 µM.

With Cc1ccc(C(=O)N2CCC3(CCCCO3)CC2)cn1 the IC50 [1] was > 501 µM and the IC50 [2] was 258 µM.

With COc1ccccc1CN1CCC(N)CC1 the IC50 [1] was > 501 µM and the IC50 [2] was 130 µM.

COc1cc(OC)cc(C2(F)CCNCC2)c1 gave an IC50 [1] of 287 µM and an IC50 [2] of 226 µM.

In the case of Nc1cnn(Cc2ccccn2)c1, the IC50 [1] is reported as > 501 µM and the IC50 [2] is reported as 206 µM.

CC(C)c1cc(C(=O)N2CCN(Cc3ccsc3)CC2)n[nH]1 showed an IC50 [1] of 39.7 µM and an IC50 [2] of 28.4 µM.

For CCC(CNS(=O)(=O)N(C)CC)c1ccccc1 (stereo unspecified), the IC50 [1] was > 501 µM and the IC50 [2] was 249 µM.

With Cc1ccc2[nH]c(=O)cc(C(=O)NCCCn3nccc3C3CC3)c2c1 the IC50 [1] was > 50.1 µM and the IC50 [2] was 26.1 µM.

With O=C(NCC1COCCO1)c1cnc2ccccc2c1 (stereo unspecified) the IC50 [1] was > 501 µM and the IC50 [2] was > 501 µM.

In the case of CSc1cccc(N(C)C(=O)C(N)c2ccccc2)c1 (stereo unspecified), the IC50 [1] is reported as > 501 µM and the IC50 [2] is reported as 233 µM.

With CCc1cccc(S(=O)(=O)N2CC[C@H](N)C2)c1 the IC50 [1] was > 501 µM and the IC50 [2] was 183 µM.

In the case of O=C(NCC(=O)N1CCc2ccccc2C1)c1cnccn1, the IC50 [1] is reported as > 50.1 µM and the IC50 [2] is reported as > 50.1 µM.

c1csc(CCNc2nc(-c3ccncc3)nc3c2CCNCC3)c1 gave an IC50 [1] of 21.7 µM and an IC50 [2] of 46.2 µM.

For C=C(C)CN1C(=O)Nc2ccccc2S1(=O)=O, the IC50 [1] was > 501 µM and the IC50 [2] was 349 µM.

In the case of O=C1CCC2(CCN(Cc3cscn3)CC2)CN1CCCO, the IC50 [1] is reported as > 50.1 µM and the IC50 [2] is reported as > 50.1 µM.
